Experimental data as given in patent publication US11981658B2, “Substituted aminopyridine compounds as EGFR inhibitors” (YUHAN CORPORATION, priority 2021, dated 2024).
Read-outs that look alike come from different tables or passages of the source.

Legend:
EGFR Del19/T790M/C797S = EGFR Del19/T790M/C797S (Homo sapiens, UniProt P00533, C797S/DEL746-750/T790M); assay: Biochemical EGFR kinase inhibition assay (Lance Ultra TR-FRET), triple mutant del19/T790M/C797S
Description: (§1) Biochemical EGFR kinase assays were conducted using Lance Ultra time-resolved fluorescence resonance energy transfer (TR-FRET) technology from Perkin-Elmer. Compounds of the invention were initially diluted to 20 mM in 100% DMSO for storage and made into kinase buffer solution to create a compound concentration ranging from 0.003 μM and 10 μM.
(§2) Each kinase reactions were incubated at room temperature for 1 hour and then stopped by the addition of 4 μL of stop solution (10 mM EDTA). The specific Europium-labeled-anti-phosphopeptide antibody (PerkinElmer, AD0069) diluted in LANCE detection buffer was then added to a final concentration of 2 nM. After 60 minutes incubation at room temperature the LANCE signal was measured on an EnVision Multilabel Reader (Perkin-Elmer). Excitation wavelength was set at 320 nm and emission monitored at 615 nm (donor) and 665 nm (acceptor). The IC50 values were determined using GraphPad prism software (GraphPad Software, Inc., San Diego, CA, USA).

EGFR L858R/T790M/C797S = EGFR L858R/T790M/C797S (Homo sapiens, UniProt P00533, C797S/L858R/T790M); assay: Biochemical EGFR kinase inhibition assay (Lance Ultra TR-FRET), triple mutant L858R/T790M/C797S
Description: as §1, §2

EGFR Del19/C797S = EGFR Del19/C797S (Homo sapiens, UniProt P00533, C797S/DEL746-750); assay: Biochemical EGFR kinase inhibition assay (Lance Ultra TR-FRET), double mutant del19/C797S
Sequence of EGFR Del19/C797S (P00533 with tags, fused parts or gaps DEL746-750/C797S): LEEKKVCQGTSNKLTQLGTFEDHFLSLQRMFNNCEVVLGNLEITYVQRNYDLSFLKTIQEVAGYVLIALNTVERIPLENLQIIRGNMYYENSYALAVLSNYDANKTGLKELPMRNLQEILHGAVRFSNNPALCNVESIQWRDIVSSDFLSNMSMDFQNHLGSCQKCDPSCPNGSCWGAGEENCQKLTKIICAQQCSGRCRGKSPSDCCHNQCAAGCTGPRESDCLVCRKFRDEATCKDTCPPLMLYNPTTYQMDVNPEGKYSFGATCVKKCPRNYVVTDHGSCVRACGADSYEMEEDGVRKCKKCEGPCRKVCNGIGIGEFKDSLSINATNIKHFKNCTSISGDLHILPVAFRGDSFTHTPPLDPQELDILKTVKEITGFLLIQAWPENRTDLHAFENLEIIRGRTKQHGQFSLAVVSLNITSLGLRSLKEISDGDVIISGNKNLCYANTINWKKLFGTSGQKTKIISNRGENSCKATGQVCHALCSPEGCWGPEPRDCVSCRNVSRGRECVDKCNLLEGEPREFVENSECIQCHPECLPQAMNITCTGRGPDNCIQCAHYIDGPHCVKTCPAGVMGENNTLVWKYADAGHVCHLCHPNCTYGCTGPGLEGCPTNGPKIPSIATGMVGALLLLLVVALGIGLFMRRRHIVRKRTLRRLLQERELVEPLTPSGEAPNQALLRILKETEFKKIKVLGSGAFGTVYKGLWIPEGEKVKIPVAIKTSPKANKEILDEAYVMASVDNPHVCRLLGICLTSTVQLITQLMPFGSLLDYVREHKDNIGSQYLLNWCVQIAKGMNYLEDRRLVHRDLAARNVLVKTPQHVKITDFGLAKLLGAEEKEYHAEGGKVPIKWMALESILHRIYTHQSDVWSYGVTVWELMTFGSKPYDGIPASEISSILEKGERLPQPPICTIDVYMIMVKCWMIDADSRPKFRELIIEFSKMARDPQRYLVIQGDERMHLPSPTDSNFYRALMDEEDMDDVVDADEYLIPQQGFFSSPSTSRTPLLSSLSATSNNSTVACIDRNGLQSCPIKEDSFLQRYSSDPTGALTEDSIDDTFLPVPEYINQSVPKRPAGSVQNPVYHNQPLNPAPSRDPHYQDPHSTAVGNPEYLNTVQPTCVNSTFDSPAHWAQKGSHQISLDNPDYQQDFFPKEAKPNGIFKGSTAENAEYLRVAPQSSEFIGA
Description: as §1, §2

EGFR L858R/C797S = EGFR L858R/C797S (Homo sapiens, UniProt P00533, C797S/L858R); assay: Biochemical EGFR kinase inhibition assay (Lance Ultra TR-FRET), double mutant L858R/C797S
Sequence of EGFR L858R/C797S (P00533 25-1210 C797S/L858R): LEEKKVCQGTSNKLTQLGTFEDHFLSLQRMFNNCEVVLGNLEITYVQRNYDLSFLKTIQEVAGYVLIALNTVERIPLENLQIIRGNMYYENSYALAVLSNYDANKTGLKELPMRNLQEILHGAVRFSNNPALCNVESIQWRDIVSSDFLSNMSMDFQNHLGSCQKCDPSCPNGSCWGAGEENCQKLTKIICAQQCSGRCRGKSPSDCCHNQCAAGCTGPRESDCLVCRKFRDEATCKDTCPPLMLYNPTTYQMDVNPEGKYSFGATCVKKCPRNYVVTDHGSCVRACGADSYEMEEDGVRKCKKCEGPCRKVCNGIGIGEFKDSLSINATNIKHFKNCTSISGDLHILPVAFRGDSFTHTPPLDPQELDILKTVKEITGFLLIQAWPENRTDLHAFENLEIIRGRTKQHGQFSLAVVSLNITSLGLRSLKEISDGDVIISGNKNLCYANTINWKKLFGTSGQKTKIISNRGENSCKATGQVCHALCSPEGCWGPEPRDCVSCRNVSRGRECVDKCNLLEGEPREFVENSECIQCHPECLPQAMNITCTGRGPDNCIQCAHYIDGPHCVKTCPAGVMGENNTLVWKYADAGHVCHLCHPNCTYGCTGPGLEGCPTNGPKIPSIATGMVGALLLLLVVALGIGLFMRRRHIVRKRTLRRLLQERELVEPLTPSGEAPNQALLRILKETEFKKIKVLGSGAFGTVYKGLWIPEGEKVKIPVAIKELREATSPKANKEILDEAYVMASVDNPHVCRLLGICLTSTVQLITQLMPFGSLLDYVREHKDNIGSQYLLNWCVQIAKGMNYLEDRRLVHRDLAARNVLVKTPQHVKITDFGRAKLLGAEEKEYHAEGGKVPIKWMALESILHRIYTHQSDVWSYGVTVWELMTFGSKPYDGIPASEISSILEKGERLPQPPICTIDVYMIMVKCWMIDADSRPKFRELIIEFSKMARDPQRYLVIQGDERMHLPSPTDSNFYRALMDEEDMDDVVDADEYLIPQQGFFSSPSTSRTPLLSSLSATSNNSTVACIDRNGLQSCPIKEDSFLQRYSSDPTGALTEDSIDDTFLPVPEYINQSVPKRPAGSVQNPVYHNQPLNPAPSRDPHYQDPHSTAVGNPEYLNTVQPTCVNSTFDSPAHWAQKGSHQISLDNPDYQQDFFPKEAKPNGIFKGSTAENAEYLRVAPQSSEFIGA
Description: as §1, §2

EGFR wildtype (WT) = EGFR wildtype (WT) (Homo sapiens, UniProt P00533); assay: Biochemical EGFR kinase inhibition assay (Lance Ultra TR-FRET), wildtype
Sequence of EGFR wildtype (WT) (P00533 25-1210): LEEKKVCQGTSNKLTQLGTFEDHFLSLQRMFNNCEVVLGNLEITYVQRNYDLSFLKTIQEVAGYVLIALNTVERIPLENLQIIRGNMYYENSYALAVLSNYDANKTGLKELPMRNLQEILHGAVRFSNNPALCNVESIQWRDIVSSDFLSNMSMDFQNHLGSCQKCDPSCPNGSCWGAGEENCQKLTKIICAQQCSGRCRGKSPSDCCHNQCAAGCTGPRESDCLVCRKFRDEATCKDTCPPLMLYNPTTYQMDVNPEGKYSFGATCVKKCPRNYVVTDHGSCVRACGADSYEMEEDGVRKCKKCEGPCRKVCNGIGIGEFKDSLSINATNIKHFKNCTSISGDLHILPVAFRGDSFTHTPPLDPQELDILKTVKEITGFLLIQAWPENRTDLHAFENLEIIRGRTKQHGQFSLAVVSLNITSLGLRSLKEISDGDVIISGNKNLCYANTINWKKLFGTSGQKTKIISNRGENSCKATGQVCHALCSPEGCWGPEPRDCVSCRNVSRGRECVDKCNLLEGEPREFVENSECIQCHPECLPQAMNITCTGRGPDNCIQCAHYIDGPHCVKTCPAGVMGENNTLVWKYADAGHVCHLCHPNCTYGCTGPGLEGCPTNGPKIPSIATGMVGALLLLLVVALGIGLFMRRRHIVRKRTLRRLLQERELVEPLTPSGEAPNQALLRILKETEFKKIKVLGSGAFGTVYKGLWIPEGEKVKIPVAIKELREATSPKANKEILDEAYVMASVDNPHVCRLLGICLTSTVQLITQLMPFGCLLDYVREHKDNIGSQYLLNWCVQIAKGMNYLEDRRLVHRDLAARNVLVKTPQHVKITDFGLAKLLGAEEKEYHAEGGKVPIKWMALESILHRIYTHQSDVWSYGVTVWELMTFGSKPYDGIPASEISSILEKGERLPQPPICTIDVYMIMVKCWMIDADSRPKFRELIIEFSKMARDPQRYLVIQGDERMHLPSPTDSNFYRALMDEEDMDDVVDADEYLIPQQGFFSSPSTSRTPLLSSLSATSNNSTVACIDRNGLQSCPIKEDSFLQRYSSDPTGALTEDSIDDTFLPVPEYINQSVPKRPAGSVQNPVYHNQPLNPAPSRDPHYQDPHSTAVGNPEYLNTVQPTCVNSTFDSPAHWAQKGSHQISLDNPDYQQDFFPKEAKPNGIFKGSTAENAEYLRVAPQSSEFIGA
Description: as §1, §2

[1] = IC50 Del19/T790M/C797S (nM), 100 μM ATP
[2] = Km ATP, read-out: IC50 Del19/T790M/C797S (nM) Km ATP
[3] = IC50 L858R/T790M/C797S (nM), 100 μM ATP
[4] = Km ATP, read-out: IC50 L858R/T790M/C797S (nM) Km ATP
[5] = IC50 Del19/C797S (nM), 100 μM ATP
[6] = Km ATP, read-out: IC50 Del19/C797S (nM) Km ATP
[7] = IC50 L858R/C797S (nM), 100 μM ATP
[8] = Km ATP, read-out: IC50 L858R/C797S (nM) Km ATP
[9] = Km ATP, read-out: IC50 WT (nM) Km ATP
[10] = ATP at Km, read-out: IC50 Del19/T790M/C797S (nM), Km ATP
[11] = ATP at Km, read-out: IC50 L858R/T790M/C797S (nM), Km ATP
[12] = ATP at Km, read-out: IC50 Del19/C797S (nM), Km ATP
[13] = ATP at Km, read-out: IC50 L858R/C797S (nM), Km ATP
[14] = ATP at Km, read-out: IC50 WT (nM), Km ATP

Sequence of EGFR Del19/T790M/C797S (P00533 with tags, fused parts or gaps DEL746-750/T790M/C797S): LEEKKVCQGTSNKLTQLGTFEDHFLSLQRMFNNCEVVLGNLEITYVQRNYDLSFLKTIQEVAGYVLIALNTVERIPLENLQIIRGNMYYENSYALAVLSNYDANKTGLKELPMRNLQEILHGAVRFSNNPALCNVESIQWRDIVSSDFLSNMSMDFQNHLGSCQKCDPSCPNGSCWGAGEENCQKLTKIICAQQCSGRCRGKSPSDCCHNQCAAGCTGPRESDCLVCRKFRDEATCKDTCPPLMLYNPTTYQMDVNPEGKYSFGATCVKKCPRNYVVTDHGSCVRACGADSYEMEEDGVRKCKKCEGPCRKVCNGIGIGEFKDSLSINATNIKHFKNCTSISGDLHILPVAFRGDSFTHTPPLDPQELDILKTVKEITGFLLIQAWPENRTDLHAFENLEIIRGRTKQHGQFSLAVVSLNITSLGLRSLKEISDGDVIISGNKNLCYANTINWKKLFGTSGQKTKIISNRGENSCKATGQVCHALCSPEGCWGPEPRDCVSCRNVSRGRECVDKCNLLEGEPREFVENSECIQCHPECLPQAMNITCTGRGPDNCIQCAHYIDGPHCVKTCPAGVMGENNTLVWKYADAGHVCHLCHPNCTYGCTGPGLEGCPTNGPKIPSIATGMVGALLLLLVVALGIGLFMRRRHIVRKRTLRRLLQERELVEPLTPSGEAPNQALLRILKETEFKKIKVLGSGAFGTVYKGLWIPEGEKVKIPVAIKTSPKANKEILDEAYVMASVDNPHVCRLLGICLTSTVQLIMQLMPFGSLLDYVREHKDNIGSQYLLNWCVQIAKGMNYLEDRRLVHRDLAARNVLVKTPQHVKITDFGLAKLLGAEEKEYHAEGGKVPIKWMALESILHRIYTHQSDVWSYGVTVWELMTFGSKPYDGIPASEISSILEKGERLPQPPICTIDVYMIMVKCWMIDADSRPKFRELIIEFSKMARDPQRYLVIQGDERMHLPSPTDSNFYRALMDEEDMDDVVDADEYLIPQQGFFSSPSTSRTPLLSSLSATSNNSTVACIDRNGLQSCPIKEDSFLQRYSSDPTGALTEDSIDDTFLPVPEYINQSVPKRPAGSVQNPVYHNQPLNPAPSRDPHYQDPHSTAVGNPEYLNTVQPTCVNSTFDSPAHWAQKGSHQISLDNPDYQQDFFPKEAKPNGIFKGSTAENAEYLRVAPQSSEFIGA

SMILES | IC50 (EGFR Del19/T790M/C797S; [1]) | IC50 (EGFR Del19/T790M/C797S; [2]) | IC50 (EGFR L858R/T790M/C797S; [3]) | IC50 (EGFR L858R/T790M/C797S; [4]) | IC50 (EGFR Del19/C797S; [5]) | IC50 (EGFR Del19/C797S; [6]) | IC50 (EGFR L858R/C797S; [7]) | IC50 (EGFR L858R/C797S; [8]) | IC50 (EGFR wildtype (WT); IC50 WT (nM), 100 μM ATP) | IC50 (EGFR wildtype (WT); [9]) | IC50 (EGFR Del19/T790M/C797S; [10]) | IC50 (EGFR L858R/T790M/C797S; [11]) | IC50 (EGFR Del19/C797S; [12]) | IC50 (EGFR L858R/C797S; [13]) | IC50 (EGFR wildtype (WT); [14]) | IC50 (EGFR Del19/T790M/C797S; Km ATP, read-out: IC50 Del19/T790M/C797S (nM), Km ATP) | IC50 (EGFR L858R/T790M/C797S; Km ATP, read-out: IC50 L858R/T790M/C797S (nM), Km ATP) | IC50 (EGFR Del19/C797S; Km ATP, read-out: IC50 Del19/C797S (nM), Km ATP) | IC50 (EGFR L858R/C797S; Km ATP, read-out: IC50 L858R/C797S (nM), Km ATP) | IC50 (EGFR wildtype (WT); Km ATP, read-out: IC50 WT (nM), Km ATP)
CN(C)C[C@H]1CC[C@H](COc2cc(Nc3ccnc(-c4cnn(S(=O)(=O)C5CC5)c4)n3)ncc2C#Cc2cccnc2)CC1 [Example 62, 2-(1-(Cyclopropylsulfonyl)-1H-pyrazol-4-yl)-N-(4-(((1r,4r)-4-((dimethylamino)methyl)cyclohexyl)methoxy)-5-(pyridin-3-ylethynyl)pyridin-2-yl)pyrimidin-4-amine] |  | 0.2 nM |  | 0.1 nM |  | 0.4 nM |  | 4.9 nM |  | 7.9 nM |  |  |  |  |  |  |  |  |  | 
CN(C)C[C@H]1CC[C@@H](Nc2cc(Nc3ccnc(-c4cnn(S(=O)(=O)C5CC5)c4)n3)ncc2C#Cc2cnn(C3CC3)c2)CC1 [Example 313, 5-((1-Cyclopropyl-1H-pyrazol-4-yl)ethynyl)-N^2-(2-(1-(cyclopropylsulfonyl)-1H-pyrazol-4-yl)pyrimidin-4-yl)-N^4-((1s,4s)-4-((dimethylamino)methyl)cyclohexyl)pyridine-2,4-diamine] | 0.4 nM |  | 0.3 nM |  | 2 nM |  | 9 nM |  | 4690 nM |  | 0.3 nM | 0.1 nM | 1.2 nM | 0.9 nM | 10.7 nM |  |  |  |  | 
O=S(=O)(C1CC1)N1CCC(C#Cc2cnc(Nc3ccnc(-c4cnn(S(=O)(=O)C5CC5)c4)n3)cc2NC2CCC(O)CC2)C1 (stereo not drawn) [Example 394, (1s,4s)-4-((2-((2-(1-(Cyclopropylsulfonyl)-1H-pyrazol-4-yl)pyrimidin-4-yl)amino)-5-((1-(cyclopropylsulfonyl)pyrrolidin-3-yl)ethynyl)pyridin-4-yl)amino)cyclohexan-1-ol] | 0.6 nM |  | 1.5 nM |  | 12.3 nM |  | 52.5 nM |  | > 10000 nM |  |  |  |  |  |  | 0.5 nM | 0.2 nM | 7.5 nM | 4.3 nM | 15.7 nM
O=S(=O)(C1CC1)n1cc(-c2nccc(Nc3cc(N[C@H]4CC[C@@H](O)CC4)c(C#Cc4ccc(CN5CCOCC5)cc4)cn3)n2)cn1 [Example 157, (1s,4s)-4-((2-((2-(1-(Cyclopropylsulfonyl)-1H-pyrazol-4-yl)pyrimidin-4-yl)amino)-5-((4-(morpholinomethyl)phenyl)ethynyl)pyridin-4-yl)amino)cyclohexan-1-ol] | 3.6 nM |  | 4.6 nM |  | 10.6 nM |  | 40.8 nM |  | > 10000 nM |  | 3.3 nM | 1.7 nM | 3.7 nM | 3.3 nM | 127 nM |  |  |  |  | 
Cn1cc(C#Cc2cnc(Nc3ccnc(-c4cnn(S(=O)(=O)C5CC5)c4)n3)cc2N2CCC3(CCNCC3)C2)cn1 [Example 154, 2-(1-(Cyclopropylsulfonyl)-1H-pyrazol-4-yl)-N-(5-((1-methyl-1H-pyrazol-4-yl)ethynyl)-4-(2,8-diazaspiro[4.5]decan-2-yl)pyridin-2-yl)pyrimidin-4-amine] | 1.4 nM |  | 4.3 nM |  | 12 nM |  | 145 nM |  | 6720 nM |  | 0.4 nM | 0.3 nM | 6 nM | 6.4 nM | 44.4 nM |  |  |  |  | 
CC1(CO)CCN(c2cc(Nc3ccnc(-c4cnn(S(=O)(=O)C5CC5)c4)n3)ncc2C#Cc2csc(CN3CCOCC3)n2)CC1 [Example 189, (1-(2-((2-(1-(Cyclopropylsulfonyl)-1H-pyrazol-4-yl)pyrimidin-4-yl)amino)-5-((2-(morpholinomethyl)thiazol-4-yl)ethynyl)pyridin-4-yl)-4-methylpiperidin-4-yl)methanol] | 0.7 nM |  | 0.9 nM |  | 1.8 nM |  | 40.4 nM |  | > 10000 nM |  | 0.7 nM | 0.6 nM | 2.1 nM | 2.8 nM | 8.4 nM |  |  |  |  | 
CN(C)Cc1ccc(CNc2cc(Nc3ccnc(-c4cnn(S(=O)(=O)C5CC5)c4)n3)ncc2C#Cc2cnn(CC(F)F)c2)cc1 [Example 52, N^2-(2-(1-(Cyclopropylsulfonyl)-1H-pyrazol-4-yl)pyrimidin-4-yl)-5-((1-(2,2-difluoroethyl)-1H-pyrazol-4-yl)ethynyl)-N^4-(4-((dimethylamino)methyl)benzyl)pyridine-2,4-diamine] |  | 1.4 nM |  | 3.8 nM |  | 76.9 nM |  | 65.6 nM |  | 304 nM |  |  |  |  |  |  |  |  |  | 
O=S(=O)(C1CC1)n1cc(-c2nccc(Nc3cc(N[C@H]4CC[C@@H](O)CC4)c(C#CC4(O)CCOCC4)cn3)n2)cn1 [Example 196, 4-((6-((2-(1-(Cyclopropylsulfonyl)-1H-pyrazol-4-yl)pyrimidin-4-yl)amino)-4-(((1 s, 4s)-4-hydroxycyclohexyl)amino)pyridin-3-yl)ethynyl)tetrahydro-2H-pyran-4-ol] | 0.6 nM |  | 1.1 nM |  | 9.8 nM |  | 50.6 nM |  | > 10000 nM |  | 0.7 nM | 0.3 nM | 6 nM | 6.8 nM | 68 nM |  |  |  |  | 

The remaining compounds from weak to strong by IC50 (EGFR Del19/T790M/C797S; [1]), led by results:

IC50 (EGFR Del19/T790M/C797S; [1]) | IC50 (EGFR Del19/T790M/C797S; [2]) | IC50 (EGFR L858R/T790M/C797S; [3]) | IC50 (EGFR L858R/T790M/C797S; [4]) | IC50 (EGFR Del19/C797S; [5]) | IC50 (EGFR Del19/C797S; [6]) | IC50 (EGFR L858R/C797S; [7]) | IC50 (EGFR L858R/C797S; [8]) | IC50 (EGFR wildtype (WT); IC50 WT (nM), 100 μM ATP) | IC50 (EGFR wildtype (WT); [9]) | IC50 (EGFR Del19/T790M/C797S; [10]) | IC50 (EGFR L858R/T790M/C797S; [11]) | IC50 (EGFR Del19/C797S; [12]) | IC50 (EGFR L858R/C797S; [13]) | IC50 (EGFR wildtype (WT); [14]) | IC50 (EGFR Del19/T790M/C797S; Km ATP, read-out: IC50 Del19/T790M/C797S (nM), Km ATP) | IC50 (EGFR L858R/T790M/C797S; Km ATP, read-out: IC50 L858R/T790M/C797S (nM), Km ATP) | IC50 (EGFR Del19/C797S; Km ATP, read-out: IC50 Del19/C797S (nM), Km ATP) | IC50 (EGFR L858R/C797S; Km ATP, read-out: IC50 L858R/C797S (nM), Km ATP) | IC50 (EGFR wildtype (WT); Km ATP, read-out: IC50 WT (nM), Km ATP) | SMILES
0.4 nM | 0.3 nM | 0.3 nM | 0.2 nM | 0.7 nM | 0.4 nM | 3.4 nM | 0.3 nM | 1020 nM | 3.7 nM |  |  |  |  |  |  |  |  |  |  | CN(C)CCn1cc(C#Cc2cnc(Nc3ccnc(-c4cnn(S(=O)(=O)C5CC5)c4)n3)cc2N2CCC(F)(CO)CC2)cn1 [Example 117, (1-(2-((2-(1-(Cyclopropylsulfonyl)-1H-pyrazol-4-yl)pyrimidin-4-yl)amino)-5-((1-(2-(dimethylamino)ethyl)-1H-pyrazol-4-yl)ethynyl)pyridin-4-yl)-4-fluoropiperidin-4-yl)methanol]
0.3 nM | 0.3 nM | 1.2 nM | 0.3 nM | 4.9 nM | 3.3 nM | 30.5 nM | 2.7 nM | > 10000 nM | 60.2 nM |  |  |  |  |  |  |  |  |  |  | O=S(=O)(C1CC1)n1cc(-c2nccc(Nc3cc(N4CCC(NCCF)CC4)c(C#Cc4cnn(C5CCOCC5)c4)cn3)n2)cn1 [Example 136, 2-(1-(Cyclopropylsulfonyl)-1H-pyrazol-4-yl)-N-(4-(4-((2-fluoroethyl)amino)piperidin-1-yl)-5-((1-(tetrahydro-2H-pyran-4-yl)-1H-pyrazol-4-yl)ethynyl)pyridin-2-yl)pyrimidin-4-amine]
0.2 nM |  | 0.2 nM |  | 1 nM |  | 17.2 nM |  | 7510 nM |  | 0.2 nM | 0.1 nM | 1.1 nM | 1.4 nM | 4.7 nM |  |  |  |  |  | CN(C)CC1(C)CCN(c2cc(Nc3ccnc(-c4cnn(S(=O)(=O)C5CC5)c4)n3)ncc2C#Cc2cnn(C3CC3)c2)CC1 [Example 299, N-(5-((1-Cyclopropyl-1H-pyrazol-4-yl)ethynyl)-4-(4-((dimethylamino)methyl)-4-methylpiperidin-1-yl)pyridin-2-yl)-2-(1-(cyclopropylsulfonyl)-1H-pyrazol-4-yl)pyrimidin-4-amine]
0.2 nM |  | 0.2 nM |  | 3.6 nM |  | 21.6 nM |  | 7820 nM |  |  |  |  |  |  |  |  |  |  |  | CC1(CO)CCN(c2cc(Nc3ccnc(-c4cnn(S(=O)(=O)C5CC5)c4)n3)ncc2C#CCNC(=O)C(F)(F)F)CC1 [Example 288, N-(3-(6-((2-(1-(Cyclopropylsulfonyl)-1H-pyrazol-4-yl)pyrimidin-4-yl)amino)-4-(4-(hydroxymethyl)-4-methylpiperidin-1-yl)pyridin-3-yl)prop-2-yn-1-yl)-2,2,2-trifluoroacetamide]
